# How the values were obtained:
# [1] = biological target: T1, integrin α4β7 on α4β7+ memory T helper cells (Homo sapiens, UniProt P13612+P26010); test: MAdCAM-1 competition / receptor occupancy assay in human whole blood, α4β7-positive Th memory cells; type: cell-based; details: human whole blood; for IC50: inhibition of MAdCAM-1 binding to α4β7-positive Th memory cells, FACS, read-out: MADCAM FACS α4β7 Th mem
# T1 construct: endogenous in cells
# T1 sequence (P13612 34-1032): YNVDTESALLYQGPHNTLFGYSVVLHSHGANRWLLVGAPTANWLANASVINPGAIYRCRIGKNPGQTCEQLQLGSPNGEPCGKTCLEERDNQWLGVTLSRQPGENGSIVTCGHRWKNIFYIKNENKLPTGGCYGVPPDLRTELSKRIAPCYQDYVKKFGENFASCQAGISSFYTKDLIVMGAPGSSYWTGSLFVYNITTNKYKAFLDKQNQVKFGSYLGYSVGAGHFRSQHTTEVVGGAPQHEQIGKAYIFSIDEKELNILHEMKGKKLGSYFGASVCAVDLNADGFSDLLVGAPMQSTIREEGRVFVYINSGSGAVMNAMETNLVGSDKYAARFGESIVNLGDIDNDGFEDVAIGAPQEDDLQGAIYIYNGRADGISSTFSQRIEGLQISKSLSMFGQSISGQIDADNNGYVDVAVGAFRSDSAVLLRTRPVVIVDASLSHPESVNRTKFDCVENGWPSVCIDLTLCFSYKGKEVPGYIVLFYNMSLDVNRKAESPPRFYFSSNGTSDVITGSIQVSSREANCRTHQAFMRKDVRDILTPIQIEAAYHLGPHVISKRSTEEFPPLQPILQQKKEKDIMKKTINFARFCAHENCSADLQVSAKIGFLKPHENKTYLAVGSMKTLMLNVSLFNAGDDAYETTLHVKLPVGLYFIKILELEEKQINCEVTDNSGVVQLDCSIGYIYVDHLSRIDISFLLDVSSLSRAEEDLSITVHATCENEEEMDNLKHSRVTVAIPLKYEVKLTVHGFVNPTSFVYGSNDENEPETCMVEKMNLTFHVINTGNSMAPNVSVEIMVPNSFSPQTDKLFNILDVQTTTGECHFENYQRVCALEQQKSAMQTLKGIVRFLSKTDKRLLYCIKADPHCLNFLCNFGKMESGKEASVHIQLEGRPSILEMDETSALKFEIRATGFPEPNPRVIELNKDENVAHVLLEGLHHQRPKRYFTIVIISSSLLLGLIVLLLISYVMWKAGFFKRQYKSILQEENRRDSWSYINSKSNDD
# T1 sequence (P26010 20-798): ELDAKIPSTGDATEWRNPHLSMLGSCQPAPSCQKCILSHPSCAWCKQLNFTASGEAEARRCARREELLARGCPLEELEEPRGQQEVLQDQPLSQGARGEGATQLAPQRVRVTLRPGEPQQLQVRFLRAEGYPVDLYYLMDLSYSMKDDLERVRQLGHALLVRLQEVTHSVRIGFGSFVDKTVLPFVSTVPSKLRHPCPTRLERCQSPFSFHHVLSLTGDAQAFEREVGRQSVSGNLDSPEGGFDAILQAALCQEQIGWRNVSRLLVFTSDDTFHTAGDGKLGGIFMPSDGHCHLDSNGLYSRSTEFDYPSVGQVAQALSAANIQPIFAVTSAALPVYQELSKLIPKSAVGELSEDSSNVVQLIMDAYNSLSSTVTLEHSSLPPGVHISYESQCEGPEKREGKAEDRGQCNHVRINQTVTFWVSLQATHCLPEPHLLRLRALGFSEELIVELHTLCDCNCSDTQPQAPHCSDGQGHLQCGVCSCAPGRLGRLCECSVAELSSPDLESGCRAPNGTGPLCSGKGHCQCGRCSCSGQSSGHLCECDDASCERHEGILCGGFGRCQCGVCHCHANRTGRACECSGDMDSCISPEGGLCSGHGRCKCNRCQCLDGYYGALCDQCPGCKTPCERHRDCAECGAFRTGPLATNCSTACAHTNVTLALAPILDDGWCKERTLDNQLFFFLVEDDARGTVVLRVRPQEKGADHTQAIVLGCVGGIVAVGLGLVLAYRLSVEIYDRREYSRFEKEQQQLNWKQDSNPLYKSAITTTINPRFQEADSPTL
# Protocol: Analyte Competition Assay in CD4+ Integrin α4+β7-Lo Memory T Cells
# Receptor occupancy in primary cells was determined by measuring the amount of biotinylated human recombinant MAdCAM-1-FC or human recombinant VCAM-1-Fc bound to selected cell populations using flow cytometry. Human recombinant MAdCAM-1-FC or human recombinant VCAM-1-FC (R&D systems) were biotinylated using commercially available reagents and protocol (Pierce).
# Whole blood was collected from human donors in sodium heparin tubes. […] Cells were washed twice with 1 mL of 1X DPBS calcium magnesium free (CMF) (ThermoFisher Scientific) and resuspended in 100 microL of DPBS CMF.
# Biotinylated human recombinant MAdCAM-1-Fc or VCAM-1-Fc were added at saturating concentration and incubated at room temperature for 1 hour. […] Cells were washed with 1 mL stain buffer-FBS (BD Biosciences) and resuspended in 100 μl stain Buffer-FBS (BD Biosciences) containing 4 mM MnCl2. […] Cells were then washed with 1 mL stain buffer-FBS and resuspended in […] stain buffer-FBS. The cells were incubated in the dark for 30 minutes at room temperature with 1 ul Streptavidin APC (Biolegend 0.2 mg/ml) and a panel of antibodies for the detection of memory T helper a4b7-positive cells subset. And amount of 5.0 ul each of the following antibodies were used; CD45 FITC (BioLegend 200 ug/ml), CD29 APC Cy7 (BioLegend 100 ug/ml), Integrin beta7 PE, (BioLegend concentration 50 μg/mL), CD49d V421 (BioLegend 50 μg/mL), CD3 V510 (BioLegend 30 μg/mL), CD4 PECy7 (BioLegend 100 μg/mL), CD45RO PerCP, BioLegend 200 μg/mL). The cells were then washed with stain-buffer-FBS and resuspended in 150 microL stain buffer-FBS for acquisition on the flow cytometer (BD FACSCanto™ flow cytometer and BDFACSDiva™ software). FACS data was acquire by electronic gating on the basis of forward versus side scatter, The cytometer was set to collect 20,000 events in each tube. Cell population were determined using the following markers, CD45+, CD3+, CD4+, CD45RO+, CD49d+, integrin b7, biotinylated ligands.
# Compound receptor occupancy was defined as the decrease in the number of integrin β7+ or integrin β7-lo cells binding biotinylated rhMAdCAM-1 or rhVCAM-1, respectively.
# Receptor occupancy was calculated with the following equation: 100−((% ligand-positive cells with compound/% ligand-positive cells DMSO)*100) In Vivo T Lymphocyte Trafficking Analysis in Mouse Model of Colitis
# [2] = biological target: T2, integrin α4β7 (RPMI8866 human cells adhering to MAdCAM-1) (Homo sapiens, UniProt P13612+P26010); test: Integrin α4β7-MAdCAM cell adhesion assay (RPMI8866 cells); type: cell-based; details: RPMI8866 cells adhering to MAdCAM; read-out: RPMI8866 Adhesion α4β7/MAdCAM IC50
# T2 construct: RMP18866 cells, which express integrin α4β7; host or cells: RPMI8866
# T2 sequence (P13612 34-1032): T1 sequence (P13612 34-1032)
# T2 sequence (P26010 20-798): T1 sequence (P26010 20-798)
# Outline: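 RPMI8866 cells were loaded with […] calcein in PBS for 30 min at 37° C. After plate washes with PBS, fluorescence of adherent cells was read, and no-cell control wells were subtracted from each test well to build the dose response.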
# [3] = biological target: T3, recombinant integrin α4β1 (Homo sapiens, UniProt P05556+P13612); test: Integrin α4β1—VCAM-1 competition ELISA; type: binding; details: read-out: ELISA α4β1 Assay IC50
# T3 construct: purchased R&D Systems 5397-A3-050
# T3 sequence (P05556 21-728 limits assumed, one chain of several): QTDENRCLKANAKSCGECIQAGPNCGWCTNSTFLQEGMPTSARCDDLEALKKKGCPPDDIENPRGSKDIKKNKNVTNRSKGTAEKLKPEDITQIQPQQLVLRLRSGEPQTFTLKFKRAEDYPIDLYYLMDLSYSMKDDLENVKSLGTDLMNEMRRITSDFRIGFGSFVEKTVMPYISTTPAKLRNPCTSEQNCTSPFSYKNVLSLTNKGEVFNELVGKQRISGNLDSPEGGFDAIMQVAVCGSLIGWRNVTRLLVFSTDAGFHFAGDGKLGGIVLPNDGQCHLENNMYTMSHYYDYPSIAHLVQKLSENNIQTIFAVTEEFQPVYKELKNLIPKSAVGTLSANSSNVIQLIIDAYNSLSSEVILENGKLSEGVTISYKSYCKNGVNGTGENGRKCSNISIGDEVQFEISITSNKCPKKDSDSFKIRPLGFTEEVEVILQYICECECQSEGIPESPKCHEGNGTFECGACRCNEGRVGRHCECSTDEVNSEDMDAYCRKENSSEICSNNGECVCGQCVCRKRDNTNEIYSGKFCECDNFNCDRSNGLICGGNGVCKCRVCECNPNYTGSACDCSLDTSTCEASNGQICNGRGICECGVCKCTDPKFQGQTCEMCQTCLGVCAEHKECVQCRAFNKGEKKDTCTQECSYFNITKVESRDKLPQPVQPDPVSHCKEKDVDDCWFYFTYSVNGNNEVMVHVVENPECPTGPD
# Outline: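 Compound dilutions added to coated plate and shaken at room temperature for 2 h (300 rpm) to binding equilibrium. Wash buffer: 50 mM Tris, 100 mM NaCl, 1 mM MnCl2, 0.05% Tween. Bound Fc-tagged ligand detected with anti-human IgG Fc-HRP, 1 h at room temperature.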
Structure (SMILES),receptor occupancy at low concentrations ([1]; low concentrations),IC50 [1],IC50 [2],IC50 [3]
CC(C)C[C@@H]1NC(=O)c2ccc(-c3ccc(N4CCNCC4)cc3)c(c2)CNC(=O)[C@@H]2CCCN2[C@H](C(=O)NC(C)(C)C)[C@H](C)NC(=O)[C@H]([C@@H](C)O)NC(=O)[C@H](CC(=O)O)NC1=O [Compound 340],50%,–,–,–
CC(C)C[C@@H]1NC(=O)c2ccc(-c3ccc(N4CCN(C(=O)c5ccccc5C(=O)N5CCN(c6ccc(-c7ccc8cc7CNC(=O)[C@@H]7CCCN7[C@H](C(=O)NC(C)(C)C)[C@H](C)NC(=O)[C@H]([C@@H](C)O)NC(=O)[C@H](CC(=O)O)NC(=O)[C@H](CC(C)C)NC8=O)cc6)CC5)CC4)cc3)c(c2)CNC(=O)[C@@H]2CCCN2[C@H](C(=O)NC(C)(C)C)[C@H](C)NC(=O)[C@H]([C@@H](C)O)NC(=O)[C@H](CC(=O)O)NC1=O [Compound 512],–,64 nM,25 nM,–
CC(C)C[C@@H]1NC(=O)c2ccc(-c3ccc(N4CCN(C(=O)c5ccnc(-c6cc(C(=O)N7CCN(c8ccc(-c9ccc%10cc9CNC(=O)[C@@H]9CCCN9[C@H](C(=O)NC(C)(C)C)[C@H](C)NC(=O)[C@H]([C@@H](C)O)NC(=O)[C@H](CC(=O)O)NC(=O)[C@H](CC(C)C)NC%10=O)cc8)CC7)ccn6)c5)CC4)cc3)c(c2)CNC(=O)[C@@H]2CCCN2[C@H](C(=O)NC(C)(C)C)[C@H](C)NC(=O)[C@H]([C@@H](C)O)NC(=O)[C@H](CC(=O)O)NC1=O [Compound 465],–,132 nM,–,–
CC(C)C[C@@H]1NC(=O)c2ccc(-c3ccc(N4CCN(C(=O)C[C@H](N)C(=O)N5CCN(c6ccc(-c7ccc8cc7CNC(=O)[C@@H]7CCCN7[C@H](C(=O)NC(C)(C)C)[C@H](C)NC(=O)[C@H]([C@@H](C)O)NC(=O)[C@H](CC(=O)O)NC(=O)[C@H](CC(C)C)NC8=O)cc6)CC5)CC4)cc3)c(c2)CNC(=O)[C@@H]2CCCN2[C@H](C(=O)NC(C)(C)C)[C@H](C)NC(=O)[C@H]([C@@H](C)O)NC(=O)[C@H](CC(=O)O)NC1=O [Compound 492],–,104 nM,25 nM,–
CC(C)C[C@@H]1NC(=O)c2ccc(-c3ccc(N4CCN(C(=O)c5cc(C(=O)N6CCN(c7ccc(-c8ccc9cc8CNC(=O)[C@@H]8CCCN8[C@H](C(=O)NC(C)(C)C)[C@H](C)NC(=O)[C@H]([C@@H](C)O)NC(=O)[C@H](CC(=O)O)NC(=O)[C@H](CC(C)C)NC9=O)cc7)CC6)cc(C(F)(F)F)c5)CC4)cc3)c(c2)CNC(=O)[C@@H]2CCCN2[C@H](C(=O)NC(C)(C)C)[C@H](C)NC(=O)[C@H]([C@@H](C)O)NC(=O)[C@H](CC(=O)O)NC1=O [Compound 477],–,124 nM,21 nM,–
CC(C)C[C@@H]1NC(=O)c2ccc(-c3ccc(N4CCN(C(=O)Cc5cccc(CC(=O)N6CCN(c7ccc(-c8ccc9cc8CNC(=O)[C@@H]8CCCN8[C@H](C(=O)NC(C)(C)C)[C@H](C)NC(=O)[C@H]([C@@H](C)O)NC(=O)[C@H](CC(=O)O)NC(=O)[C@H](CC(C)C)NC9=O)cc7)CC6)c5)CC4)cc3)c(c2)CNC(=O)[C@@H]2CCCN2[C@H](C(=O)NC(C)(C)C)[C@H](C)NC(=O)[C@H]([C@@H](C)O)NC(=O)[C@H](CC(=O)O)NC1=O [Compound 462],–,68 nM,42 nM,–
CC(C)C[C@@H]1NC(=O)c2ccc(-c3ccc(N4CCN(C(=O)CCOCCOCCOCCOCCOCCOCCOCCOCCOCCOCCOCCC(=O)N5CCN(c6ccc(-c7ccc8cc7CNC(=O)[C@@H]7CCCN7[C@H](C(=O)NC(C)(C)C)[C@H](C)NC(=O)[C@H]([C@@H](C)O)NC(=O)[C@H](CC(=O)O)NC(=O)[C@H](CC(C)C)NC8=O)cc6)CC5)CC4)cc3)c(c2)CNC(=O)[C@@H]2CCCN2[C@H](C(=O)NC(C)(C)C)[C@H](C)NC(=O)[C@H]([C@@H](C)O)NC(=O)[C@H](CC(=O)O)NC1=O [Compound 503],–,250 nM,45 nM,–
CC(C)C[C@@H]1NC(=O)c2ccc(-c3ccc(N4CCN(C(=O)c5ccc6cc(C(=O)N7CCN(c8ccc(-c9ccc%10cc9CNC(=O)[C@@H]9CCCN9[C@H](C(=O)NC(C)(C)C)[C@H](C)NC(=O)[C@H]([C@@H](C)O)NC(=O)[C@H](CC(=O)O)NC(=O)[C@H](CC(C)C)NC%10=O)cc8)CC7)ccc6c5)CC4)cc3)c(c2)CNC(=O)[C@@H]2CCCN2[C@H](C(=O)NC(C)(C)C)[C@H](C)NC(=O)[C@H]([C@@H](C)O)NC(=O)[C@H](CC(=O)O)NC1=O [Compound 471],–,46 nM,29 nM,–
CC(C)C[C@@H]1NC(=O)[C@H]2Cc3ccccc3CN2C(=O)[C@H](Cc2cccc(CNC(=O)CCCCCC(=O)NCc3cccc(C[C@@H]4NC(=O)[C@@H]5CCCN5[C@H](C(=O)NC(C)(C)C)[C@H](C)NC(=O)[C@H]([C@@H](C)O)NC(=O)[C@H](CC(=O)O)NC(=O)[C@H](CC(C)C)NC(=O)[C@H]5Cc6ccccc6CN5C4=O)c3)c2)NC(=O)[C@@H]2CCCN2[C@H](C(=O)NC(C)(C)C)[C@H](C)NC(=O)[C@H]([C@@H](C)O)NC(=O)[C@H](CC(=O)O)NC1=O [Compound 527],–,126 nM,43 nM,1.1 nM

# Source: patent US11713338B2, “Cyclic peptides multimers targeting α-4-β-7 integrin” (priority 2016, dated 2023)
